# From patent publication US10905706B2, “Compositions and methods to accelerate resolution of acute lung inflammation” (The Johns Hopkins University, priority 2015, dated 2021)
# Like-named read-outs stand apart in the source and are kept apart here.
# B1: recombinant human IL-4: 15.1 kDa globular protein, SEQ ID NO: 3 (protein)
# chain: MHKCDITLQEIIKTLNSLTEQKTLCTELTVTDIFAASKNTTEKETFCRAATVLRQFYSHHEKDTRCLGATAQQFHRHKQLIRFLKRLDRNLWGLAGLNSCPVKEANQSTLENFLERLKTIMREKYSKCSS
# Columns and labels:
# WT mice = assay: IL-4 after i.t. LPS, WT mice of the Stat6 comparison; format: in vivo, mouse
# From the text: (§1) Animals. Male C57BL/6J and BALB/cJ wild type (WT) mice (8-10 weeks old) were purchased from Jackson Laboratories (Bar Harbor, Me.). Stat6-/- mice on a BALB/c background (gift of Dr. Alan Scott) and Foxp3DTR mice on a C57BL/6 background (gift of Dr. Alexander Y. Rudensky of Memorial Sloan-Kettering) were bred. All mice were housed at the Johns Hopkins University Asthma and Allergy Bldg, and experiments conducted under a protocol approved by the Johns Hopkins Animal Care and Use Committee.
# (§2) Whether the success of IL-4 therapy required M2-specific macrophage activation was also examined To test this hypothesis, the response to i.t. LPS was compared between WT mice and Stat6^−/− mice, which were deficient in a master transcriptional regulator of M2 differentiation and activation (75). […] In contrast to reduced M2 marker expression in Stat6^−/− mice, similar CD86 expression between groups (FIG. 18E) was also observed.
# Foxp3DTR mice = assay: IL-4 after i.t. LPS, Treg-depleted Foxp3DTR mice; format: in vivo, mouse
# WT C57BL/6 mice = assay: IL-4 treatment after i.t. LPS, C57BL/6 mice
# [1] = mouse, cited from earlier work
# Stat6−/− mice = assay: IL-4 after i.t. LPS, Stat6−/− mice; format: in vivo, mouse; conditions: day 5 after i.t. LPS
# From the text: as §1, §2
# [2] = tested on: Pseudomonas aeruginosa (PAO1)
# [3] = in vivo; cited from earlier work
# i.t. H2O-exposed mice = conditions: mouse, in vivo
# [4] = tested on: splenic CD4+ CD25+ cells (Tregs); assay: Lymphocyte culture with DAC, FACS phenotype of Tregs
# wild type (WT) mice [5] = tested on: wild type (WT) mice
# Rag-1−/− mice = format: in vivo, mouse
# [6] = tested on: diphtheria toxin-treated WT mice; conditions: mouse, in vivo
# wild type (WT) mice [7] = format: in vivo, mouse
# [8] = tested on: A/PR/8/34 H1N1 influenza virus; assay: DAC rescue treatment in influenza model; format: in vivo, mouse
# [9] = tested on: diphtheria toxin-treated Foxp3DTR mice; format: in vivo, mouse
# [10] = in solution; typically; cited from earlier work
# [11] = days 5-6 after i.t. LPS, vs sham
# [12] = mRNA, validated by lung immunoblots, days 4 and 6
# [13] = day 10 post-inoculation, vs vehicle
molecule,measurement,setting,value
IL-4: recombinant IL-4 cytokine (PeptroTech); in the examples given i.p. as a complex with anti-IL-4 antibody,BAL neutrophils,WT mice; day 5,greater than two-fold reduction
same,BAL protein,WT mice; day 5,greater than two-fold reduction
same,weight,"WT mice; days 4 and 5, vs all other groups",significant weight gain
same,BAL macrophages,"Foxp3DTR mice; day 6, vs sham",significant increase
same,M2 macrophage surface marker expression,"Foxp3DTR mice; day 6, vs sham",higher
same,BAL neutrophils,"Foxp3DTR mice; day 6 after i.t. LPS, vs sham",significantly reduced
same,BAL protein,"Foxp3DTR mice; day 6 after i.t. LPS, vs sham",significantly reduced
same,BAL total cell count,"Foxp3DTR mice; day 6 after i.t. LPS, vs sham",significantly reduced
same,weights,"Foxp3DTR mice; i.t. LPS 3 mg/kg, DT, IL-4 days 2 and 3, vs sham",significantly increased
same,weight gain,"WT C57BL/6 mice; by day 6 after i.t. LPS, vs sham",improved weight gain
same,whole lung mRNA level of inducible nitric oxide synthase (Nos2),WT C57BL/6 mice; day 4,reduced
same,CD86 level on alveolar macrophages (F4/80+),"WT C57BL/6 mice; day 6, vs sham",three-fold lower
same,Dectin-1 level on alveolar macrophages (F4/80+),"WT C57BL/6 mice; day 6, vs sham",four-fold higher
same,MMR level on alveolar macrophages (F4/80+),"WT C57BL/6 mice; day 6, vs sham",four-fold higher
same,Tregs recovered by BAL,"WT C57BL/6 mice; day 6 after i.t. LPS, vs sham",significant three-fold increase
same,histopathologic evidence of lung injury,"WT C57BL/6 mice; day 6 after i.t. LPS, vs sham",reduced histopathologic evidence of lung injury
same,diffusing capacity (DFCO),WT C57BL/6 mice; day 6 following i.t. LPS,significantly improved
same,lung collagen,"WT C57BL/6 mice; day 6 following i.t. LPS, vs sham",significantly reduced
same,BAL albumin,WT C57BL/6 mice; [11],two-fold reduction
same,BAL neutrophils,WT C57BL/6 mice; [11],five-fold reduction
same,BAL protein,WT C57BL/6 mice; [11],as much as a three-fold reduction
same,survival,"WT C57BL/6 mice; i.t. LPS 4 mg/kg day 0, IL-4 days 2-4, sham 57%",92%
same,number of FIZZ1-expressing alveolar macrophages,"WT C57BL/6 mice; i.t. LPS, vs sham","smaller, yet significant increase"
same,number of FIZZ1-expressing interstitial macrophages,"WT C57BL/6 mice; i.t. LPS, vs sham",significant two-fold increase
same,Arginase 1 (Arg1) level in whole lung,WT C57BL/6 mice; [12],significantly increased
same,Fizz1 (Retn1a) level in whole lung,WT C57BL/6 mice; [12],significantly increased
same,Ym1 (Chil3) level in whole lung,WT C57BL/6 mice; [12],significantly increased
same,half-life in mice,[1]; in vivo,30 min
same,duration of in vivo IL-4 activity,[1],about 30 minutes
same,response to IL-4 (BAL protein and neutrophils),Stat6−/− mice,blunted response
same,BAL albumin,"[2]; day 4, vs sham",two-fold reductions
same,BAL neutrophils,"[2]; day 4, vs sham",four-fold reduction
same,MFI of MMR and Dectin-1,"[2]; day 4, vs sham",significantly increased
same,percentage of alveolar macrophages (F4/80+) expressing MMR and Dectin-1,"[2]; day 4, vs sham",more than doubled
same,BAL protein,"[2]; i.t. PAO1 day 0, IL-4 days 2 and 3, day 4, vs sham",two-fold reductions
same,lung CFU counts,"[2]; mouse, in vivo",similar
same,safety in humans,[3],safe
same,Crs or DFCO,i.t. H2O-exposed mice,no marked differences
diphtheria toxin [reference compound],"Tregs remaining after depletion, of all CD4+ cells","Foxp3DTR mice; spleen, lung, BAL, sham- and IL-4-treated groups",less than 0.2%
"Nc1ncn([C@H]2C[C@H](O)[C@@H](CO)O2)c(=O)n1 [DAC, 5-aza-2′-deoxycytidine]",CD39 expression in Tregs,"[4]; 100 nM DAC vs vehicle, 48 h",did not augment
same,CD44 expression in Tregs,"[4]; 100 nM DAC vs vehicle, 48 h",increased CD44 expression
same,CTLA-4 expression in Tregs,"[4]; 100 nM DAC vs vehicle, 48 h",modestly increased
same,percentage of Tregs expressing Ki-67,"[4]; 100 nM DAC vs vehicle, 48 h",higher percentage
same,Foxp3 expression in Tregs,"[4]; 48 h culture, anti-CD3/CD28, IL-2, DAC 10 or 100 nM",augmented Foxp3 expression
same,difference in Foxp3 mean fluorescence intensity between DAC-induced Foxp3+ cells and Foxp3+ Tregs cultured with DAC,[4]; in vitro culture,approximately 50 fold
same,lung Treg frequency,"wild type (WT) mice [5]; DAC 1 mg/kg i.p. days 1-4 after i.t. water, day 5, vs vehicle",increased
same,lung Treg Foxp3 expression,"wild type (WT) mice [5]; DAC i.p. days 1-4 after i.t. water, day 5, FACS",increased
same,lung histology,wild type (WT) mice [5]; after four days of DAC or vehicle,normal
same,BAL protein,"wild type (WT) mice [5]; day 5 after i.t. water, both groups",low overall
same,pulmonary or overt systemic toxicity,wild type (WT) mice [5]; dose that increased lung Treg number,did not cause pulmonary or overt systemic toxicity
same,spleen Treg levels,wild type (WT) mice [5]; five days post-water treatment,significantly elevated
same,weight loss or mortality,"wild type (WT) mice [5]; i.t. water, data not shown",Neither group lost weight or experienced mortality
same,mortality,"Rag-1−/− mice; DAC days 1-4 after LPS, vehicle 50%, P=0.7",44%
same,injury resolution,Rag-1−/− mice; five days post-injury,could not be rescued
same,lung injury resolution,[6],accelerated lung injury resolution
same,mortality,"wild type (WT) mice [7]; DAC from 24 h after i.t. LPS, vehicle 28.5%, P=0.029",none
same,body weight,"wild type (WT) mice [7]; after initial injury, vehicle sustained weight loss",steadily regained weight
same,CD25 expression in lung Tregs,wild type (WT) mice [7]; data not shown,no significant change
same,"injury parameters (BAL protein, cell count, neutrophil count, histology)",wild type (WT) mice [7]; day 5 post-LPS,resolving phenotype
same,CD39 expression in lung Tregs,wild type (WT) mice [7]; five days after injury,increased
same,CD44 expression in lung Tregs,wild type (WT) mice [7]; five days after injury,increased
same,CTLA-4 expression in lung Tregs,wild type (WT) mice [7]; five days after injury,modestly yet significantly increased
same,Ki-67 expression in lung Tregs,wild type (WT) mice [7]; five days after injury,increased
same,Foxp3 expression in lung Tregs,wild type (WT) mice [7]; five days post-LPS,increased
same,spleen Treg levels,wild type (WT) mice [7]; five days post-LPS challenge,significantly elevated
same,lung CD4+Foxp3− cell frequency or phenotype,wild type (WT) mice [7]; five days post-injury,did not impact
same,lung Treg frequency or phenotype,"wild type (WT) mice [7]; two days post-injury, after one DAC dose, data not shown",no effect
same,weight loss,"[8]; DAC days 3-7 post-inoculation, day 10, vs vehicle",smaller magnitude of weight loss
same,lung Treg Foxp3 expression,[8]; day 10 post-inoculation,increase
same,lung Treg number,[8]; day 10 post-inoculation,increase
same,BAL cell count,[8]; [13],decreased
same,BAL neutrophil count,[8]; [13],decreased
same,BAL protein,[8]; [13],decreased
same,histologic injury,[8]; [13],decreased
same,"lung injury resolution (weight, BAL protein, cell count, neutrophil count, histology)",[9]; five days post-LPS,did not accelerate lung injury resolution
same,mortality,"[9]; mouse, in vivo",33%
B1,ED50 for certain effects,[10],0.006 to 0.03 ng/mL
